In patent publication US4801610A, “Phenolic ester derivatives as elastase inhibitors” (G. D. Searle & Co., priority 1987, dated 1989) one finds IC50 data, which are given here for 16 compounds.

The IC50 is the concentration at which inhibition is half-maximal.

Each structure is given as a SMILES string.

The experiment addresses T1, Human Leukocyte Elastase (HLE) (Homo sapiens, UniProt P08246).
T1 sequence (P08246 30-247 limits assumed): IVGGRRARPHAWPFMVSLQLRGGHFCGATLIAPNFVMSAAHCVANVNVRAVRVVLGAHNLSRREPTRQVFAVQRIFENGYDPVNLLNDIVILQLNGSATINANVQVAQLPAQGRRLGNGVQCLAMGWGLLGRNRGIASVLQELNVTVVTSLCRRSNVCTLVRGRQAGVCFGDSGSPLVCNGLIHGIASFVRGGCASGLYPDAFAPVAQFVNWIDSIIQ
Nature of the experiment: Inhibition of Human Leukocyte Elastase (HLE), hydrolysis of Methoxysuccinyl-Ala-Ala-Pro-Val-nitroanilide. It is filed as biochemical. Particulars: tris-HCl buffer pH 8.0, absorption at 410 nm, read-out: Inhibition of Elastase IC50, [Molar]. The protocol: Several biochemical and animal model tests can be used to examine the ability of the derivatives of the invention to prevent or alleviate the harmful biological action of elastase. The biochemical assays permit direct measurement of drug controlled inhibition of elastase fragmentation of proteins. […] In these tests, protease reaction with the substrate is measured in the presence and absence of the drug to be tested. Inhibition of protease action is indicated by a decrease in the amount of substrated fragmented. The basic parameters for such biochemical assays have been reported in the literature: J. Biol. Chem., 255, 5435 (1980); Biochem. Biophys Acta., 268, 257 (1973); Anal. Biochem. 48,9 (1972); and Biochemistry, 20, 3675 (1981). EXAMPLE 42 Inhibition of Human Leukocyte Elastase (HLE) This test measures the rate of hydrolysis of Methoxysuccinyl-[…]-nitroanilide by HLE in the presence and absence of the compound to be tested. The procedure used is as follows. […] The test hydrolysis solution was then prepared by adding 850 microliters buffer, 50 microliters derivative solution, 50 microliters peptide solution and 50 microliters of HLE solution to a 1 cm. semi-micro cuvette. The cuvette was capped, slightly shaken and placed in the light chamber of a recording colorimeter where the increase in absorption at 410 nm. due to liberated nitroaniline was measured. Using this procedure, the one minute change in absorption of the test sample containing derivative was compared to the change in absorption in the absence of derivative. A 20% or more decrease in the rate of absorption was interpreted as a positive inhibition.
`C=CCc1cc(C(=O)c2ccccc2)ccc1OC(=O)C(C)(C)C` [Example 26, 3-allyl-4-pivaloyloxybenzophenone]: the IC50 is 800 nM.

Turning to `CC(C)(C)C(=O)Oc1ccc(C(=O)c2ccccc2)c(OC(=O)C(C)(C)C)c1` [Example 13, 2,4-dipivaloyloxybenzophenone], the IC50 stood at 84 nM.

Consider `C=CC(C)c1cc(C(=O)c2ccccc2)ccc1OC(=O)C(C)(C)C` (stereo not shown) [Example 27, 3-(1-methyl-allyl)-4-pivaloyloxybenzophenone], for which the IC50 was 320 nM.

For `CC(C)(C)C(=O)Oc1ccc(Oc2ccc(OC(=O)C(C)(C)C)cc2)cc1` [Example 16, 4,4'-dipivaloyloxydiphenylether], the IC50 turned out to be 460 nM.

In the case of `CC(C)C(=O)Oc1ccc(C(=O)c2ccc(OC(=O)C(C)C)cc2)cc1` [Example 40, 4,4'-diisobutyryloxybenzophenone], the IC50 was 150 nM.

Turning to `CC(C)(C)C(=O)Oc1ccc(C(=O)c2ccc(Cl)cc2)cc1` [Example 6, 4-pivaloyloxy-4'-chlorobenzophenone], the IC50 is 290 nM.

Turning to `CC(C)(C)C(=O)Oc1ccc(C(=O)c2ccc(OC(=O)C(C)(C)C)cc2OC(=O)C(C)(C)C)cc1` [Example 2, 2,4,4'-tripivaloyloxybenzophenone], the IC50 stood at 55 nM.

`CC(C)(C)C(=O)Oc1ccc(Cc2ccc(OC(=O)C(C)(C)C)cc2)cc1` [Example 39, 4,4'-dipivaloyloxydiphenylmethane]: the IC50 worked out at 450 nM.

Regarding `CC(C)(C)C(=O)Oc1ccc(C(=O)c2ccccc2)cc1` [Example 1, 4-pivaloyloxybenzophenone], the concentration for half-maximal inhibition (IC50) amounted to 620 nM.

On to `CC(C)(C)C(=O)Oc1ccc(C(=O)c2ccc(OC(=O)C(C)(C)C)cc2)cc1` [Example 1a, 4,4'-dipivaloyloxybenzophenone], for which the IC50 worked out at 60 nM.

For `CC(C)C(=O)Oc1ccc(C(=O)c2ccccc2)cc1` [Example 34, 4-isobutyryloxybenzophenone], the IC50 was determined as 250 nM.

Take `CC(C)(C)C(=O)Oc1ccc(C(=O)c2ccccc2)cc1CCCO` [Example 29, 3-(3-hydroxyoropyl)-4-pivaloyloxybenzophenone]: the IC50 worked out at 350 nM.

For `CC(C)(C)OC(=O)Oc1ccc(C(=O)c2ccc(OC(=O)OC(C)(C)C)cc2)cc1` [Example 14, 4,4'-di(t-butyloxycarbonyloxy)benzophenone], the IC50 came to 900 nM.

`CCCC(C)(C)C(=O)Oc1ccc(C(=O)c2ccc(OC(=O)C(C)(C)CCC)cc2)cc1` [Example 7, 4,4'-α,α-dimethylvaleroyloxybenzophenone]: the IC50 was 670 nM.

As to `CC(C)(C)C(=O)Oc1cc(C(=O)c2ccc(OC(=O)C(C)(C)C)c(OC(=O)C(C)(C)C)c2OC(=O)C(C)(C)C)cc(OC(=O)C(C)(C)C)c1OC(=O)C(C)(C)C` [Example 9, 3,4,5,4',5',6',-hexapivaloyloxybenzophenone], the IC50 came out at 360 nM.

`C=C(C)Cc1cc(C(=O)c2ccccc2)ccc1OC(=O)C(C)(C)C` [Example 25, 3-methallyl-4-pivaloyloxybenzophenone]: the IC50 is 85 nM.
